Laboratory results as given in patent US20260232684A1, “FLT3 INHIBITORS AND METHODS OF USING THE SAME” (BIOVENTURES, LLC, priority 2023, published 2026).

Columns and labels:
[1] = tested on: Molm14 cells (FLT3-ITD-expressing); test: Cell viability assay (CellTiter GLO), Molm14; assay type: cell-based, human; conditions: Molm14, 48 hours
Protocol: (§1) FIG. 1. […] Cells were treated with inhibitor at increasing log doses (0.1 nM-10 μM) for 48 hours. Cell viability was analyzed through CellTiter GLO. […] Cells were exposed to increasing amounts of each drug for 2 hours. GAPDH1 represents loading control for phospho-ERK and ERK blots. GAPDH2 represents loading control for phosphor-STAT5, STAT5, phospho-S6 and S6. Each experiment was completed in triplicate. Representative images are shown.
(§2) FIG. 5. […] Cells were dosed with inhibitor at increasing log doses (0.1 nM-10 μM) for 48 hours. Cell viability was analyzed through CellTiter GLO.
(§3) MV-4-11 and parental Molm-14 cells were a gift from Dr. Scott Kogan (University of California, San Francisco). HL60 and K562 cell lines were obtained from Charles Sawyers. […] Stable Ba/F3 lines were generated by retroviral infection as previously described (5). All cell lines were tested to be mycoplasma free and human cell lines were authenticated through STR profiling completed at the University of California, Berkeley.
(§4) Each triplicate was either dosed with drug or DMSO vehicle control. Drug dosing was completed at log doses ranging from 0.1 nM-10 μM. Cell viability was assessed after 48 hours using CellTiter GLO (Promega). Viability values were normalized to the vehicle control average. Numerical IC50 values were calculated in GraphPad Prism 7.

[2] = tested on: HL60 cells (non-FLT3 driven); test: Cell viability assay (CellTiter GLO), HL60; assay type: cell-based, human; conditions: HL60, 48 hours
Protocol: as §1, §3, §4

[3] = tested on: K562 cells (non-FLT3 driven); test: Cell viability assay (CellTiter GLO), K562; assay type: cell-based, human; conditions: K562, 48 hours
Protocol: as §1, §3, §4

[4] = tested on: normal donor bone marrow mononuclear cells (BM-MNC); test: Colony forming unit assay of normal bone marrow; conditions: for impact on CFU-G counts/growth: equivalent multiples of Molm14 IC50, 14 days, three healthy donors
Protocol: FIG. 2. […] Normal bone marrow mononuclear cells (BM-MNC) were purchased from StemCell Technologies. 30,000 cells were plated in methylcellulose with increasing concentrations of either gilteritinib, 1, or 2. Blast forming unit-erythroid (BFU-E) and colony forming unit-granulocyte (CFU-G) were counted after 14 days incubation. Assay was completed in triplicate with three independent blood donors. Data shown is cumulated from all independent experiments. Error bars show one standard deviation and p values compared to control were calculated using a Student's t-test. NS indicates an insignificant p value, * indicates p value≤0.05, ** indicates p value≤0.01, *** indicates p value≤0.001, **** indicates p value≤0.0001
Bone marrow mononuclear cells (BM-MNC) of healthy donors (n=3) were purchased from StemCell Technologies (Vancouver, Canada). Cells were plated in a 35 mm dish in triplicate with methylcellulose medium at a concentration previously determined to form approximately 100 total colonies, usually 30,000 cells/mL and containing the appropriate amount of drug. Dishes were incubated for 14-15 days and visually assessed for erythrocyte burst-forming units and granulocyte-macrophage colony-forming units.

[5] = tested on: panel of 468 kinases and kinase mutants; test: KINOMEscan screening; assay type: binding; conditions: for number of kinases bound relative to gilteritinib: 20× the Molm14 IC50 concentration of each compound
[6] = tested on: NCI-60 cell line panel (no FLT3 mutation); test: NCI-60 cell line panel; assay type: cell-based, human; conditions: for cytotoxic activity in NCI-60 panel, in words: compound 1: 30 μM single dose, compound 2: 5-dose; for antiproliferative effects in NCI-60 panel, in words: higher concentrations
Protocol: FIG. 12. Activity of compound 1 against the NCI-60 cell line panel. Percentage growth of 1 in the 30 μM single dose experiment within the NCI-60 cell line panel. No cell line within the panel harbors a FLT3 mutation.
FIG. 13. Activity of compound 2 against the NCI-60 cell line panel. Growth inhibition curves of 2 in the 5-dose GIso experiment within the NCI-60 cell line panel. No cell line within the panel harbors a FLT3 mutation.
Myelosuppression represents a critical limitation of current FLT3 TKIs. To assess the selectivity profiles, KINOMEscan screening was performed for 1, 2, and gilteritinib at 20× the Molm14 IC50 concentration of each compound (FIG. 2A).

Molm14 F691L cells = test: Cell viability assay (CellTiter GLO), Molm14 F691L; assay type: cell-based, human; conditions: 48 hours
Protocol: as §1, §2, §3, §4

[7] = tested on: TKI-naïve primary AML patient samples expressing FLT3-ITD; test: Short-term liquid culture growth inhibition of primary AML samples; assay type: cell-based, human; conditions: 100 nM, up to 7 days, CellTiter GLO, five patient samples
Protocol: FIG. 11. Activity of compounds against primary FLT3-ITD AML samples in short term liquid culture assays. […] Plates were incubated with drug for 0, 1, 2, 3, 5 or 7 days. FLT3 mutation is noted for each patient in parentheses. Cell viability was analyzed through CellTiter GLO.
The compounds were further evaluated for activity against TKI-naïve primary AML patient samples expressing FLT3-ITD in short-term liquid culture growth inhibition assays (24).

[8] = tested on: FLT3 signaling in Molm14 subcutaneous xenografts; test: In vivo target inhibition in Molm14 subcutaneous xenografts; design: species or system mice; conditions: for oral bioavailability and pharmacokinetic profile, in words: mice, oral gavage; for inhibition of target and downstream effectors at 4 hour and 8 hours: single dose by oral gavage, all doses, Western blot of tumors
Description: FIG. 6. Assessment of in vivo target inhibition by compounds 1 and 2 in Molm14 subcutaneous xenografts. Western blot analysis of 1 and 2 in a Molm14 xenograft model.

[9] = tested on: Molm-14 F691L cells stably expressing firefly luciferase; test: Circulating tumor model, Molm14 F691L luciferase; assay type: in vivo
Protocol: FIG. 7. […] Molm14 F691L stably expressing FLuc9 were engrafted in mice through tail vein injection. Mice were imaged once every three days.
Molm-14 F691L cells stably expressing firefly luciferase were injected into the tail vein of NSG mice and tumor growth was monitored through bioluminescence.

SMILES | activity in cell viability assay (IC50, FIG. 1A/5B), in words [1] | activity in cell viability assay (IC50, FIG. 1A), in words [2] | activity in cell viability assay (IC50, FIG. 1A), in words [3] | impact on BFU-E counts/growth [4] | impact on CFU-G counts/growth [4] | selectivity profile, in words ([5]; 20× the Molm14 IC50 concentration) | number of kinases bound relative to gilteritinib [5] | six kinases bound with greatest affinity ([5]; KINOMEscan analysis) | cytotoxic activity in NCI-60 panel, in words [6] | antiproliferative effects in NCI-60 panel, in words [6] | activity in cell viability assay (IC50, FIG. 1A/5B), in words (Molm14 F691L cells) | activity against primary FLT3-ITD AML samples, in words [7] | oral bioavailability and pharmacokinetic profile, in words [8] | inhibition of target and downstream effectors at 4 hour and 8 hours [8] | target inhibition at 24 hours ([8]; single oral dose, 2 mg/kg and 10 mg/kg) | tumor growth compared to gilteritinib ([9]; both doses of compound 2 (5 or 10 mg/kg) vs gilteritinib 33 mg/kg) | tumor growth (bioluminescence), in words ([9]; daily oral gavage 14 days, compound 2 5 or 10 mg/kg, gilteritinib 33 mg/kg, vs vehicle control) | target inhibition at 24 hours ([8]; single oral dose, 10 mg/kg) | kinase signaling at 24 hours ([8]; single oral dose, lower doses)
CN(C)CCNc1ncc(F)c(-c2cnc3cc(-c4cnn(C)c4)ccn23)n1 [Compound 1] | activity comparable to quizartinib and superior to gilteritinib | neither compound displayed any concerning toxicity | neither compound displayed any concerning toxicity | no significant impact on BFU-E growth at any concentration | less impact on CFU-G growth than gilteritinib | remarkable selectivity profile | bound to far fewer kinases than gilteritinib | FLT3, IRAK4, PHGK1, PHGK2, CDK7, TRKA | neither compound displayed any significant cytototoxic activity | antiproliferative effects were noted at higher concentrations | retain activity | activity comparable to quizartinib and gilteritinib in all samples | oral bioavailability and acceptable pharmacokinetic profiles | inhibition of target and downstream effectors at all doses | sufficient for retaining target inhibition for 24 hours |  |  |  | 
CC(C)(C)c1cc(NC(=O)Cc2ccc(-c3cnc4cc(-c5cnn(CCN6CCOCC6)c5)ccc4n3)cc2)no1 [Compound 2, N-(5-(tert-butyl)isoxazol-3-yl)-2-(4-(6-(1-(2-morpholinoethyl)-1H-pyrazol-4-yl)quinoxalin-2-yl)phenyl) acetamide] | activity comparable to quizartinib and superior to gilteritinib | neither compound displayed any concerning toxicity | neither compound displayed any concerning toxicity | no significant impact on BFU-E growth at any concentration | less impact on CFU-G growth than gilteritinib |  | bound to far fewer kinases than gilteritinib |  | neither compound displayed any significant cytototoxic activity | antiproliferative effects were noted at higher concentrations | retain activity | most potent activity of all the compounds | oral bioavailability and acceptable pharmacokinetic profiles | inhibition of target and downstream effectors at all doses |  | statistically significant difference compared to gilteritinib | nearly halt all tumor growth | sustained target inhibition | kinase signaling was restored
